# Measurements as given in patent US20100204142A1, “USE OF THE PEPTIDE PHPFHLFVY (RENIN INHIBITOR) AS A THERAPEUTIC AGENT” (priority 2007, published 2010).
# Where no end group is shown, it is not given here.
# Tested on: drug-resistant Mycobacterium tuberculosis
# Details: drug-resistant Mycobacterium tuberculosis growth; peptide 10 micrograms per ml; seven days
substance,measurement,value
PHPFHLFVY-OH [Renin inhibitor],% inhibition,0.0%
